According to patent US12390441B2, “Immunomodulating o-het/aryl azalides” (Zoetis Services LLC, priority 2020, dated 2025):
pIC50: −log10 of the molar value. Where two headings read alike, the source gives them in different places. Marks after values point to notes of the source that are not given here. Blank lines part the entries; values can stand above or below the compound they belong to.

Key:
P. multocida 46572 = assay: In vivo mouse lung infection challenge model (murine); set-up: species or system CD-1 female mice; conditions: 46572, sc, 20 mg/kg, 240 h
Method: The challenge organism was P. multocida 46572. Target challenge concentration was 5×10^2 CFU/mouse. Isolated colonies from overnight growth (37° C. with 5% CO2) on trypticase soy agar (TSA II) blood plates were transferred to room temperature Brain Heart Infusion Broth (BHIB). The broth culture was incubated 3.5-4 hours to approximately mid-log phase of growth, as measured by forward light scatter at 600 nm (OD600, 0.200). The culture was centrifuged to collect the bacterial pellet. The pellet was re-suspended in BHIB and adjusted to provide an approximate concentration of 2.7 log^10 colony forming units (CFU) in 0.04 mL at the highest concentration. The challenge inoculum concentration was confirmed by serial dilutions of the inoculum for CFU enumeration. On Day −5, CD-1 female mice were received. Mice were given standard rodent diet and water ad libitum. On Day 0, bacterial inoculum (0.04 mL) was administered to each mouse (n=36) intranasally. Compounds of the invention were dosed at 20 mg/kg (0.1 mL) in a buffered (˜pH 5.4) propylene glycol, monothioglycerol and water solution by subcutaneous injection. Animals were observed from Days 1-10. The study was terminated on Day 10. In addition, some treatment groups were sampled at 6, 24, and 48 hours post bacterial challenge for RNA sequence analysis of lung tissue.
The murine efficacy model (P. multocida challenge) was optimized, and the treatment group size was powered to be able to observe statistically significant improvement of survival to expected ranges for immunomodulatory compounds. The experimental design was a randomized complete block design. Mice were individually identified and treatment groups comingled within a cage, with every treatment group equally represented across cages. Mortality was the primary variable. Mortality data was analyzed using a generalized mixed model with fixed effect of treatment and random effect of block. Survival time was also analyzed using the SAS PHREG (survival analysis) procedure to examine whether there were significant differences between treatment groups and the control group. Numerous compounds of the invention and M9 (positive control) were tested in this model at a dose of 20 mg/kg (Table 3). Typical percent survival for no treatment control is in the range of 0-20% based on study to study variation in challenge inoculum and rate of infection. […] Mouse survival for M9 was about 90-100%, further supporting its residual antibacterial properties against the bacterial strain. Harmonized survival accounts for % survival relative to vehicle (“−” control) and M9 (“+” control)) survival data (Table 3).

M. haemolytica = assay: In-vitro MIC model (CLSI broth micro-dilution); type: cell-based, Mannheimia haemolytica; conditions: for MIC: Mannheimia haemolytica, read-out: Comparative MIC
P. multocida [1] = assay: In-vitro MIC model (CLSI broth micro-dilution); type: cell-based, Pasteurella multocida; conditions: for MIC: Pasteurella multocida, read-out: Comparative MIC
S. aureus (29213 ATCC) = assay: In-vitro MIC model (CLSI broth micro-dilution); type: cell-based; conditions: for MIC: Staphylococcus aureus, read-out: Comparative MIC
TNF-α = assay: Whole blood assay, LPS stimulation, MSD cytokine detection; type: cell-based; conditions: fresh whole bovine blood
[2] = tested on: BRD pathogens, M. haemolytica and P. multocida; assay: In-vitro MIC model, BRD pathogen screening panel; type: cell-based, Mannheimia haemolytica; Pasteurella multocida; conditions: at least one BRD strain
IL-1β = assay: Whole blood assay, LPS stimulation, MSD cytokine detection; type: cell-based, bovine; conditions: fresh whole bovine blood, LPS stimulation; drug concentration giving overstimulation (OS) of IL-1β
[3] = tested on: M. haemolytica (OSU-012103-BHI); conditions: inhaled or nasal
IL-6 [4] = assay: Whole blood assay, LPS stimulation, MSD cytokine detection; type: cell-based; conditions: Bos taurus, fresh whole bovine blood
P. multocida [5] = assay: Murine P. multocida intranasal challenge study, survival; type: in vivo, mice; conditions: 5×10^3 CFU/mouse; subcutaneous 18 hours after challenge; tulathromycin 16 mg/kg, M9 32 mg/kg, ceftiofur 9 mg/kg
[6] = tested on: Lung bacteria isolated at necropsy; assay: MIC of recovered isolates, natural bovine respiratory disease study
H. somni (A700025K) = assay: In-vitro MIC model (CLSI broth micro-dilution); type: cell-based, Histophilus somni
IL-6 [7] = assay: Plasma IL-6 biomarker in bovine M. haemolytica challenge
[8] = M. haemolytica 46571, bovine efficacy challenge strain
[9] = P. multocida 46572, murine efficacy challenge strain
[10] = H. somni (25) lung isolates at necropsy
[11] = M. haemolytica (116) lung isolates at necropsy
[12] = P. multocida (33) lung isolates at necropsy

SMILES: CC[C@H]1OC(=O)[C@H](C)[C@@H](O)[C@H](C)[C@@H](O[C@@H]2O[C@H](C)C[C@H](NC)[C@H]2Oc2ccc(OC)cc2)[C@](C)(O)C[C@@H](C)CN[C@H](C)[C@@H](O)[C@]1(C)O [Example B-6, (2R,3S,4R,5R,8R,10R,11R,12S,13S,14R)-2-ethyl-3,4,10,13-tetrahydroxy-11-(((2S,3R,4S,6R)-3-(4-methoxyphenoxy)-6-methyl-4-(methylamino)tetrahydro-2H-pyran-2-yl)oxy)-3,5,8,10,12,14-hexamethyl-1-oxa-6-azacyclopentadecan-15-one]
% Survival (P. multocida 46572): 1%
MIC (M. haemolytica; M. haemolytica 12726): > 64 mg/L
MIC (M. haemolytica; M. haemolytica 33396): > 64 mg/L
MIC (M. haemolytica; [8]): > 64 mg/L
MIC (P. multocida [1]; P. multocida 43137): > 64 mg/L
MIC (P. multocida [1]; [9]): > 64 mg/L
MIC (S. aureus (29213 ATCC)): > 64 mg/L

Comparative MIC (P. multocida [1]; P. multocida 43137): >64 mg/L
Comparative MIC (P. multocida [1]; [9]): >64 mg/L
Comparative MIC (S. aureus (29213 ATCC)): >64 mg/L
SMILES: CC[C@H]1OC(=O)[C@H](C)[C@@H](O)[C@H](C)[C@@H](O[C@@H]2O[C@H](C)C[C@H](N(C)C(=O)N(C)C3CC3)[C@H]2Oc2ccccc2)[C@](C)(O)C[C@@H](C)CN(C)[C@H](C)[C@@H](O)[C@]1(C)O [Example C-27]
Comparative MIC (M. haemolytica; M. haemolytica 12726): >64 mg/L
Comparative MIC (M. haemolytica; M. haemolytica 33396): >64 mg/L
Comparative MIC (M. haemolytica; [8]): >64 mg/L

SMILES: CCCNC[C@]1(O)[C@H](C)O[C@@H](O[C@H]2[C@H](C)[C@@H](O[C@@H]3O[C@H](C)C[C@H](NC)[C@H]3Oc3ccc(OC)cc3)[C@](C)(O)C[C@@H](C)CN[C@H](C)[C@@H](O)[C@](C)(O)[C@@H](CC)OC(=O)[C@@H]2C)C[C@@]1(C)OC [Example E-2, (2R,3S,4R,5R,8R,10R,11R,12S,13S,14R)-2-ethyl-3,4,10-trihydroxy-13-(((2R,4R,5S,6S)-5-hydroxy-4-methoxy-4,6-dimethyl-5-((propylamino)methyl)tetrahydro-2H-pyran-2-yl)oxy)-11-(((2S,3R,4S,6R)-3-(4-methoxyphenoxy)-6-methyl-4-(methylamino)tetrahydro-2H-pyran-2-yl)oxy)-3,5,8,10,12,14-hexamethyl-1-oxa-6-azacyclopentadecan-15-one]
% Survival (P. multocida 46572): 36%
pIC50 (TNF-α; Bos taurus): 5.22
MIC flag at the example number (Table E) [2]: E-2* (MIC ≤ 64 μg/mL for at least one BRD strain)
IL-1ß OS of LPS (IL-1β): 32 µM

pIC50 (TNF-α): 4.52
Comparative MIC (P. multocida [1]; P. multocida 43137): >64 mg/L
Comparative MIC (P. multocida [1]; [9]): >64 mg/L
Comparative MIC (S. aureus (29213 ATCC)): >64 mg/L
SMILES: CCCNC[C@]1(O)[C@H](C)O[C@@H](O[C@H]2[C@H](C)[C@@H](O[C@@H]3O[C@H](C)C[C@H](NC)[C@H]3Oc3cccc(OCC)c3)[C@](C)(O)C[C@@H](C)CN[C@H](C)[C@@H](O)[C@](C)(O)[C@@H](CC)OC(=O)[C@@H]2C)C[C@@]1(C)OC [Example E-13]
Comparative MIC (M. haemolytica; M. haemolytica 12726): >64 mg/L
Comparative MIC (M. haemolytica; M. haemolytica 33396): >64 mg/L
Comparative MIC (M. haemolytica; [8]): >64 mg/L
IL-1ß OS of LPS (IL-1β): 40 µM

SMILES: CCCNC[C@]1(O)[C@H](C)O[C@@H](O[C@H]2[C@H](C)[C@@H](O[C@@H]3O[C@H](C)C[C@H](NC)[C@H]3Oc3ccccc3)[C@](C)(O)C[C@@H](C)CN[C@H](C)[C@@H](O)[C@](C)(O)[C@@H](CC)OC(=O)[C@@H]2C)C[C@@]1(C)OC [Example E-112, (2R,3S,4R,5R,8R,10R,11R,12S,13S,14R)-2-ethyl-3,4,10-trihydroxy-13-(((2R,4R,5S,6S)-5-hydroxy-4-methoxy-4,6-dimethyl-5-((propylamino)methyl)tetrahydro-2H-pyran-2-yl)oxy)-3,5,8,10,12,14-hexamethyl-11-(((2S,3R,4S,6R)-6-methyl-4-(methylamino)-3-phenoxytetrahydro-2H-pyran-2-yl)oxy)-1-oxa-6-azacyclopentadecan-15-one]
% Survival (P. multocida 46572): 53%
lung lesion scores ([3]; 0.01 mg/kg): 39
lung lesion scores ([3]; 0.05 mg/kg): 41
lung lesion scores ([3]; 0.1 mg/kg): 27
pIC50 (TNF-α; Bos taurus): 5.00
MIC (M. haemolytica; M. haemolytica 12726): > 64 mg/L
MIC (M. haemolytica; M. haemolytica 33396): > 64 mg/L
MIC (M. haemolytica; [8]): > 64 mg/L
IL-1ß OS of LPS (IL-1β): 80 µM
pIC50 (IL-6 [4]): 4.40
MIC (P. multocida [1]; P. multocida 43137): > 64 mg/L
MIC (P. multocida [1]; [9]): > 64 mg/L
MIC (S. aureus (29213 ATCC)): > 64 mg/L

Comparative MIC (P. multocida [1]; P. multocida 43137): >64 mg/L
Comparative MIC (P. multocida [1]; [9]): >64 mg/L
Comparative MIC (S. aureus (29213 ATCC)): >64 mg/L
SMILES: CCCNC[C@]1(O)[C@H](C)O[C@@H](O[C@H]2[C@H](C)[C@@H](O[C@@H]3O[C@H](C)C[C@H](N(C)C(=O)N4CCN(CC)CC4)[C@H]3Oc3ccc(OC)c(OCC)c3)[C@](C)(O)C[C@@H](C)CN[C@H](C)[C@@H](O)[C@](C)(O)[C@@H](CC)OC(=O)[C@@H]2C)C[C@@]1(C)OC [Example G-3]
Comparative MIC (M. haemolytica; M. haemolytica 12726): >64 mg/L
Comparative MIC (M. haemolytica; M. haemolytica 33396): >64 mg/L
Comparative MIC (M. haemolytica; [8]): >64 mg/L

SMILES: CO/N=C(\C(=O)N[C@@H]1C(=O)N2C(C(=O)O)=C(CSC(=O)c3ccco3)CS[C@H]12)c1csc(N)n1 [ceftiofur]
Survival at Day 7 (P. multocida [5]): ~90%

SMILES: CCCN1C[C@H](C)[C@@H](O)[C@](C)(O)[C@@H](CC)OC(=O)[C@H](C)[C@@H](O[C@H]2C[C@@](C)(OC)[C@@H](O)[C@H](C)O2)[C@H](C)[C@@H](O[C@@H]2O[C@H](C)C[C@H](N(C)C)[C@H]2O)[C@](C)(O)C[C@H]1C [gamithromycin (Zactran)]
MIC50 [6, 10]: 0.25 mg/L
MIC90 [6, 10]: 2 mg/L
MIC50 [6, 11]: 1 mg/L
MIC90 [6, 11]: >64 mg/L
MIC50 [6, 12]: 1 mg/L
MIC90 [6, 12]: >64 mg/L

MIC, H. somni strains (H. somni (A700025K)): 0.25 to 8 mg/L
MIC, P. multocida strains (P. multocida [1]; screening panel strains): 1 to 2 mg/L
SMILES: CCCN1C[C@H](C)[C@@H](O)[C@](C)(O)[C@@H](CC)OC(=O)[C@H](C)[C@@H](O[C@H]2C[C@@](C)(OC)[C@@H](O)[C@H](C)O2)[C@H](C)[C@@H](O[C@@H]2O[C@H](C)C[C@H](N(C)C)[C@H]2O)[C@](C)(O)C[C@H]1C [gamithromycin, reference compound]
MIC, M. haemolytica strains (M. haemolytica; screening panel strains): 0.5 to 1 mg/L

SMILES: CCCNC[C@]1(O)[C@H](C)O[C@@H](O[C@H]2[C@H](C)[C@@H](O[C@@H]3O[C@H](C)C[C@H](N(C)C)[C@H]3O)[C@](C)(O)C[C@@H](C)CN[C@H](C)[C@@H](O)[C@](C)(O)[C@@H](CC)OC(=O)[C@@H]2C)C[C@@]1(C)OC [tulathromycin, (2R,3S,4R,5R,8R,10R,11R,12S,13S,14R)-11-(((2S,3R,4S,6R)-4-(dimethylamino)-3-hydroxy-6-methyltetrahydro-2H-pyran-2-yl)oxy)-2-ethyl-3,4,10-trihydroxy-13-(((2R,4R,5S,6S)-5-hydroxy-4-methoxy-4,6-dimethyl-5-((propylamino)methyl)tetrahydro-2H-pyran-2-yl)oxy)-3,5,8,10,12,14-hexamethyl-1-oxa-6-azacyclopentadecan-15-one]
Survival at Day 7 (P. multocida [5]): about 80%
IL-6 levels (IL-6 [7]): significantly reduced
